Assay results reported in the supplement of paper PMC11208160.

Experiment: recombinant UMI read abundance after kanamycin selection (control-corrected) (log10(CPM+1)); higher = more efficient recombination; extreme values may be limits of the assay; sequences stand for … in AGTGCAGAGAAAATCGGCCAGTTTTCTCTGCCTGCAGTCCGCATGCCGTGGGACCCCTTGGGTTCTAACCTGTTGCCTAGATTTATGCAGCGGACTGCCTTTCTCCCAAAGTGATAAACCGG…AGGTTGGTTTCACT; site = the 11-nt donor
Description: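 Pooled E. coli donor-specificity screen for the IS621 bridge recombinase. Each library member carries a reprogrammed 11-nt donor and a full-length LE bridge RNA expressed in cis from the natural promoter, with a paired donor-binding loop (8-nt LDG + 4-nt RDG) and a target-binding loop fixed to T5. It is co-electroporated with a T5 target plasmid; recombinase is induced with 0.07 mM IPTG and recombinants are selected on kanamycin. UMIs are counted as CPM, averaged over two biological replicates and corrected by the unselected control. Molecule = full bridge RNA written as DNA, built from the T5 scaffold: LDG = donor specificity nt 1-8, RDG = reverse complement of nt 8-11.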
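Also: IS621 bridge recombinase in Escherichia coli cells against a fixed T5 target plasmid.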

| Sequence | recombinant UMI read abundance (log10) |
| --- | --- |
| ACTAGGGCATGGACCGGTTTTCCCGGTAATCCGTATTTGGT (site ACTAGCGCTAC) | 0.00536 |
| ACTAGGGCATGGACCGGTTTTCCCGGTAATCCGTATTTGGT (site ACTAGGGCTAC) | 1.2 |
| ACTAGGGCATGGACCGGTTTTCCCGGTAATCCGTATTTGGT (site ACTAGTGCTAC) | 0.0165 |
| ACTAGTACATGGACCGGTTTTCCCGGTAATCCGTATTTGGT (site ACTAGTACTAC) | 1.19 |
| ACTAGTACATGGACCGGTTTTCCCGGTAATCCGTATTTGGT (site ACTAGTCCTAC) | 0.00589 |
| ACTAGTACATGGACCGGTTTTCCCGGTAATCCGTATTTGGT (site ACTAGTGCTAC) | 0.181 |
| ACTAGTACATGGACCGGTTTTCCCGGTAATCCGTATTTGGT (site ACTAGTTCTAC) | 0 |
| ACTAGTGCATGGACCGGTTTTCCCGGTAATCCGTATTTGCC (site ACTAGTGCTGG) | 1.93 |
| ACTAGTTCATGGACCGGTTTTCCCGGTAATCCGTATTTGAA (site ACTAGTTCTTT) | 1.03 |
| ACTATGCCATGGACCGGTTTTCCCGGTAATCCGTATTTGTC (site ACTATGCCTGA) | 0 |
| ACTCATCCATGGACCGGTTTTCCCGGTAATCCGTATTTGAC (site ACACATCCTGT) | 0 |
| ACTCATCCATGGACCGGTTTTCCCGGTAATCCGTATTTGAC (site ACCCATCCTGT) | 0.872 |
| ACTCATCCATGGACCGGTTTTCCCGGTAATCCGTATTTGAC (site ACGCATCCTGT) | 0.525 |
| ACTCATCCATGGACCGGTTTTCCCGGTAATCCGTATTTGAC (site ACTCATCCTGT) | 0.798 |
| ACTCCAACATGGACCGGTTTTCCCGGTAATCCGTATTTGCT (site ACTCCAACTAG) | 1.66 |
| ACTCCACCATGGACCGGTTTTCCCGGTAATCCGTATTTGTG (site ACTCCACCTCA) | 0.0232 |

| Sequence | recombinant UMI read abundance (log10) |
| --- | --- |
| ACTCCGACATGGACCGGTTTTCCCGGTAATCCGTATTTGGC (site ACTCCGACTGC) | 1.98 |
| ACTCGAACATGGACCGGTTTTCCCGGTAATCCGTATTTGTC (site ACACGAACTGA) | 0 |
| ACTCGAACATGGACCGGTTTTCCCGGTAATCCGTATTTGTC (site ACCCGAACTGA) | 1.84 |
| ACTCGAACATGGACCGGTTTTCCCGGTAATCCGTATTTGTC (site ACGCGAACTGA) | 1.26 |
| ACTCGAACATGGACCGGTTTTCCCGGTAATCCGTATTTGTC (site ACTCGAACTGA) | 2 |
| ACTCGCTCATGGACCGGTTTTCCCGGTAATCCGTATTTGGT (site ACTCGCTCTAC) | 2.03 |
| ACTCTACCATGGACCGGTTTTCCCGGTAATCCGTATTTGCT (site ACTCTACCTAG) | 0 |
| ACTGACACATGGACCGGTTTTCCCGGTAATCCGTATTTGAC (site ACTGACACTGT) | 2.83 |
| ACTTATGCATGGACCGGTTTTCCCGGTAATCCGTATTTGCT (site ACTTATGCTAG) | 0.0248 |
| ACTTCGCCATGGACCGGTTTTCCCGGTAATCCGTATTTGCT (site ACTTCGCCTAG) | 0.0122 |
| ACTTGATCATGGACCGGTTTTCCCGGTAATCCGTATTTGGC (site ACTTGATCTGC) | 1.24 |
| ACTTGCCCATGGACCGGTTTTCCCGGTAATCCGTATTTGAT (site ACTTGCCCTAT) | 0.398 |
| ACTTGCCCATGGACCGGTTTTCCCGGTAATCCGTATTTGAT (site CCTTGCCCTAT) | 0.0521 |
| ACTTGCCCATGGACCGGTTTTCCCGGTAATCCGTATTTGAT (site GCTTGCCCTAT) | 0.0168 |
| ACTTGCCCATGGACCGGTTTTCCCGGTAATCCGTATTTGAT (site TCTTGCCCTAT) | 0.0192 |
| ACTTTGGCATGGACCGGTTTTCCCGGTAATCCGTATTTGTA (site ACTTTGGCTTA) | 1.26 |
